According to patent US20050020567A1, “Method of treating bacterial infections using gemifloxacin or a salt thereof and a carbapenem antibacterial agent” (priority 2002, published 2005):
Where two headings read alike, the source gives them in different places. Blank lines part the entries; values can stand above or below the compound they belong to.

Tests used:
Type in all cases: cell-based, Pseudomonas aeruginosa
P. aeruginosa 6140 = experiment: checkerboard titration, gemifloxacin and imipenem (MIC, FIC); conditions: for MIC: Pseudomonas aeruginosa, alone
Procedure: (§1) The combined effect of gemifloxacin and imipenem was investigated in P. aeruginosa by using a checkerboard titration method. The test organisms used in this study were all clinical isolates collected in Korea. The isolates were maintained frozen at −70° C. prior to testing.
(§2) Gemifloxacin was tested at 12 concentrations (0.016-32 μg/ml) and imipenem was tested at 11 concentrations (0.016-16 μg/ml). Gemifloxacin was dispensed alone in the first row and combined with imipenem in the remaining rows. Imipenem solution was also dispensed alone in the first row in the first column. Test strains were grown for 18 h in Mueller-Hinton Broth, and then these overnight cultures were diluted with the same fresh medium to the density of approximately 10^7 CFU/mL. The bacterial concentrations were determined by measuring optical density or turbidity of the suspension and were verified by standard colony counts on antibiotic-free agar plates. A diluted bacterial solution was applied to plates containing serially diluted antimicrobial agents to yield 5×10^5 CFU/mL. Plates were incubated at 35° C. for 18 hours.
(§3) Minimal inhibitory concentrations (MICs) for each separate drug were determined. For wells along the growth-no growth interface, synergy was determined by calculating the Fractional Inhibitory Concentration (FIC) index. The Fractional Inhibitory Concentration (FIC) indices were calculated using the following formula: FIC index=FICA+FICB=[A]/MICA+[B]/MICB Wherein: • FICA(or B), is the FIC of drug A (or B) • MICA (or B) is the MIC of the organism to drug A (or B) • A (or B) is concentration of drug A (or B) that is the lowest inhibitory concentration
(§4) The FIC indices were interpreted using the following criteria: • ≦0.5=Synergy; • >0.5-1.0=Additive; • >1.0-4.0=Indifference; • >4.0=Antagonism

P. aeruginosa 6168 = experiment: as above; conditions: for MIC: Pseudomonas aeruginosa, alone
Procedure: as §1, §2, §3, §4

P. aeruginosa PA018R = experiment: as above; conditions: for MIC: Pseudomonas aeruginosa, alone
Procedure: as §1, §2, §3, §4

P. aeruginosa ATCC 27853 = experiment: checkerboard titration, gemifloxacin and meropenem (MIC, FIC); conditions: for MIC: Pseudomonas aeruginosa
Procedure: Evaluation for synergistic activity was carried out by calculation of fractional inhibitory concentrations (FICs) according to the method of Eliopoulos et al (1996, Antimicrobial Combinations, Antibiotics in Laboratory Medicine, Victor Lorian, 4th Edition, pp 337-338, Baltimore, Md., Williams and Wilkins).
P. aeruginosa ATCC 27853 was obtained from the SmithKline Beecham Anti-Infectives Research Culture Collection and stored at −80° C. in 10% glycerol. Before testing, the isolate was passaged onto agar plates (trypticase soy agar containing 5% sheeps blood) from the frozen stock for two consecutive days. Cation adjusted Mueller Hinton broth (BBL, Cockeyville, Md.) was used for the isolate.
Checkerboard microtitre broth dilution plates were prepared using the Hamilton MicroLab AT Plus system (Reno, Nev.). Two-fold serial dilutions (50 μl) of meropenem were made in columns 1 through 11 of a microtitre plate. Two-fold serial dilutions of gemifloxicin were prepared manually and the MicroLab AT Plus was used to dispense 25 μl of gemifloxacin at each concentration into rows A through G of the microtitre plate. The concentration range tested varied for each drug/organism combination to encompass the MIC endpoints of the individual components. Column 12 contained two fold serial dilutions of gemifloxacin only, and row H contained two fold serial dilutions of meropenem only. The last well (H) in column 12 was used as a positive growth control well, containing only medium and test isolate.
The bacteria were diluted to a 0.5 McFarland standard and then further diluted 1/50. Each well was inoculated with 25 μl of the isolate to give a final inoculum density of approximately 5×10^5 cfu/ml. The MicroLab AT Plus 2 was used to add the inoculum to the microtitre plates. After inoculation, the plates were covered with a 96 well microtitre plate lid and incubated at 35° C. in ambient air for 20-24 hours. A 10 μl aliquot of the inoculum was plated on trypticase soy agar containing 5% sheep blood to determine the purity of the final test inoculum.
Following incubation, a microtitre mirror reader (Cooke Instruments Ltd., England) was used to assist in determining the microdilution MIC endpoints. The MIC was determined as the lowest concentration of compound that inhibited visible growth of the organism.
The Fractional Inhibitory Concentrations (FICs) were calculated using the following formula: (A)/(MIC A)+(B)/(MIC B)=FIC A+FIC B=FIC Index wherein: • A is the MIC of drug A in the presence of drug B • B is the MIC of drug B in the presence of drug A • MIC A is the MIC of the organism to drug A alone • MIC B is the MIC of the organism to drug B alone • FIC A is the fractional inhibitory concentration of drug A • FIC B is the fractional inhibitory concentration of drug B

[1] = gemifloxacin in combination with imipenem
[2] = imipenem in combination with gemifloxacin

MIC (P. aeruginosa 6140; read-out: gemifloxacin MIC): 8 µg/mL
Cgemifloxacin MIC (P. aeruginosa 6140; [1]): 2 µg/mL
MIC (P. aeruginosa 6168; read-out: gemifloxacin MIC): 0.5 µg/mL
Cgemifloxacin MIC (P. aeruginosa 6168; [1]): 0.0625 µg/mL
MIC (P. aeruginosa PA018R; read-out: gemifloxacin MIC): 4 µg/mL
Cgemifloxacin MIC (P. aeruginosa PA018R; [1]): 1 µg/mL
MIC (P. aeruginosa ATCC 27853; ATCC27853, in the presence of meropenem 0.125 μg/ml, read-out: gemifloxacin MIC): 0.125 µg/mL
gemifloxacin MIC (P. aeruginosa ATCC 27853; gemifloxacin alone): 0.5 µg/mL
Structure (SMILES): CO/N=C1\CN(c2nc3c(cc2F)c(=O)c(C(=O)O)cn3C2CC2)CC1CN (racemic) [gemifloxacin, (R,S)-7-(3-aminomethyl-4-methoxyiminopyrrolidin-1-yl)-1-cyclopropyl-6-fluoro-4-oxo-1,4-dihydro-1,8-naphthyridine-3-carboxylic acid]
FICA (P. aeruginosa 6140; FIC of gemifloxacin): 0.25
FICA (P. aeruginosa 6168; FIC of gemifloxacin): 0.13
FICA (P. aeruginosa PA018R; FIC of gemifloxacin): 0.25

MIC (P. aeruginosa 6140; read-out: imipenem MIC): 4 µg/mL
Cimipenem MIC (P. aeruginosa 6140; [2]): 1 µg/mL
MIC (P. aeruginosa 6168; read-out: imipenem MIC): 1 µg/mL
Cimipenem MIC (P. aeruginosa 6168; [2]): 0.25 µg/mL
MIC (P. aeruginosa PA018R; read-out: imipenem MIC): 16 µg/mL
Cimipenem MIC (P. aeruginosa PA018R; [2]): 1 µg/mL
Structure (SMILES): C[C@@H](O)[C@H]1C(=O)N2C(C(=O)O)=C(SCCN=CN)C[C@H]12 [imipenem]
FICB (P. aeruginosa 6140; FIC of imipenem): 0.25
FICB (P. aeruginosa 6168; FIC of imipenem): 0.25
FICB (P. aeruginosa PA018R; FIC of imipenem): 0.06

MIC (P. aeruginosa ATCC 27853; ATCC27853, in the presence of gemifloxacin 0.125 μg/ml, read-out: meropenem MIC): 0.125 µg/mL
meropenem MIC (P. aeruginosa ATCC 27853; meropenem alone): 0.5 µg/mL
Structure (SMILES): C[C@@H](O)[C@H]1C(=O)N2C(C(=O)O)=C(S[C@@H]3CN[C@H](C(=O)N(C)C)C3)[C@H](C)[C@H]12 [meropenem]
